Key:
[1] = biological target: T1, PaLhpI (aconitase X, AcnX Type I; cis-3-hydroxy-L-proline dehydratase) (Pseudomonas aeruginosa, UniProt Q9I485); experiment: substrate turnover by purified enzyme (HPLC), coupled with reductase; assay type: biochemical; parameters: gene lhpI; N-terminal (His)6-tagged recombinant protein
AtLhpI (AcnX Type I) = biological target: T2, AtLhpI (AcnX Type I) (Agrobacterium fabrum, UniProt A9CH00); experiment: substrate turnover by purified enzyme, Lineweaver-Burk kinetics; assay type: biochemical
T2 construct: gene lhpI; N-terminal (His)6-tagged recombinant protein
T2 sequence (A9CH00 1-569): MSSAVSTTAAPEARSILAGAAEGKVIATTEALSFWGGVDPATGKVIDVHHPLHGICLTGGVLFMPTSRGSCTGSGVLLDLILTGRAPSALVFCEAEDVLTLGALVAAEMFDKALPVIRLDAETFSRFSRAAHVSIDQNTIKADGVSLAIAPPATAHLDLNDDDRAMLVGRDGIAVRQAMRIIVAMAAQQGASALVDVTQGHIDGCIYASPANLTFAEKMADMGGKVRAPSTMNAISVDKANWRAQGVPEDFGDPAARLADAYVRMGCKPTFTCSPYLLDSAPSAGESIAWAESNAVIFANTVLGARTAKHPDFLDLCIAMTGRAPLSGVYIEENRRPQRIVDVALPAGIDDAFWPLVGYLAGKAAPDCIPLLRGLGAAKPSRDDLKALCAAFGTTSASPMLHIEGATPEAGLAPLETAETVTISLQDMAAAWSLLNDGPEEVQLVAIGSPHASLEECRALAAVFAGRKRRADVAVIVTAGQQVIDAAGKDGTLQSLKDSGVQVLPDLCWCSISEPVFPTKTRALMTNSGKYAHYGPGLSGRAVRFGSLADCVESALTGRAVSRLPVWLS

[2] = biological target: T1, PaLhpI (aconitase X, AcnX Type I; cis-3-hydroxy-L-proline dehydratase); experiment: substrate turnover by purified enzyme (HPLC/amino acid analyzer, 1H NMR, coupled assay); assay type: biochemical; parameters: gene lhpI; N-terminal (His)6-tagged recombinant protein
TrLhpI (AcnX Type I) = biological target: T3, TrLhpI (AcnX Type I) (Trichoderma reesei, UniProt G0REW7); experiment: substrate turnover by purified enzyme (amino acid analyzer, Lineweaver-Burk kinetics); assay type: biochemical
T3 construct: gene lhpI; N-terminal (His)6-tagged recombinant protein
T3 sequence (G0REW7 1-596): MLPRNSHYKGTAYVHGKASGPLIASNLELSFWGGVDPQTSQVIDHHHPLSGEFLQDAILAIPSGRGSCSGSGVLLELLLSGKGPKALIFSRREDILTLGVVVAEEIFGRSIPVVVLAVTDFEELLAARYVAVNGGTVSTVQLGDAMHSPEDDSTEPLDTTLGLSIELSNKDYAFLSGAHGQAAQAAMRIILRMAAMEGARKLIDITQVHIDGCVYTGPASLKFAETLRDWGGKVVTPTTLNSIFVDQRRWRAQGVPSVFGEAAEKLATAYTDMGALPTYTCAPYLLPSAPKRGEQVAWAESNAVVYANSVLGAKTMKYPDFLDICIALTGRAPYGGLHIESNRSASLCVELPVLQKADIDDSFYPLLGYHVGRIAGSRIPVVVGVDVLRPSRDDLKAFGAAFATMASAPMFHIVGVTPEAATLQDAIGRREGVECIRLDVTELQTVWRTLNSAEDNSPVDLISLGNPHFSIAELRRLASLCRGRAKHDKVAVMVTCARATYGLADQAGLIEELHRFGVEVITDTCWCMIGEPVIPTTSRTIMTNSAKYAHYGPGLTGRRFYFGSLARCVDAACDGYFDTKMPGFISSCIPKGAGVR

[3] = biological target: T1, PaLhpI (aconitase X, AcnX Type I; cis-3-hydroxy-L-proline dehydratase); parameters: gene lhpI
PaLhpL = biological target: T4, PaLhpL (Pseudomonas aeruginosa, UniProt Q9I489); experiment: bifunctional dehydratase and 2-epimerase activity (details in supplement, Fig. S6); assay type: biochemical
T4 construct: gene lhpL
T4 sequence (Q9I489 1-344): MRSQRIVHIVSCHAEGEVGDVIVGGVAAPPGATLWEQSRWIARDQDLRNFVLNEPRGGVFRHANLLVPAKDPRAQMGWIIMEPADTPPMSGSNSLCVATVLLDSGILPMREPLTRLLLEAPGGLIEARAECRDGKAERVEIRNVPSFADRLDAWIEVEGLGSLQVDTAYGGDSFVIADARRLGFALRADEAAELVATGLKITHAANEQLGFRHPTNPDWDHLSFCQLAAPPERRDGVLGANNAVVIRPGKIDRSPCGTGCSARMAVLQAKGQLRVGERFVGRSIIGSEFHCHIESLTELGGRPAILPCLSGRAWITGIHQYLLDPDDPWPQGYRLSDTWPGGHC

T1 sequence (Q9I485 whole entry): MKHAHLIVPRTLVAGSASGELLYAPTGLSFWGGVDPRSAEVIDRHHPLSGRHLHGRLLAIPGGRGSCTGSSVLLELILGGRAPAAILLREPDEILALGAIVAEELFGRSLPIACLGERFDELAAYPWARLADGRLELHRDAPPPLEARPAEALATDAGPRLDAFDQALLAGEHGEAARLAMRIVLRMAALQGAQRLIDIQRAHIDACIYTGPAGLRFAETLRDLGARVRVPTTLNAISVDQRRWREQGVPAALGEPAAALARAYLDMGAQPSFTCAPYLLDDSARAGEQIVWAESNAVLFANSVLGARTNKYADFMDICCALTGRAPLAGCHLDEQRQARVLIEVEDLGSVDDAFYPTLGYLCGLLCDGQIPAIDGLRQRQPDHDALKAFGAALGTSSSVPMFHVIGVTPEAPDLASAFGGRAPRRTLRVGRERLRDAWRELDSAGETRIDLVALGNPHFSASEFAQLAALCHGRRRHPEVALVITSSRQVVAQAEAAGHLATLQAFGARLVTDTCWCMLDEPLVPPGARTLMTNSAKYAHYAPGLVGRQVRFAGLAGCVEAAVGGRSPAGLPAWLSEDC

O=C(O)[C@H]1NC[C@@H](O)[C@H]1O [2,3-cis-3,4-cis-3,4-dihydroxy-L-proline] was tested, and the “substrate turnover by purified enzyme (HPLC), coupled with reductase” value [1] was 0.130 µmol/min/mg.
With O=C(O)[C@H]1NCC[C@H]1O [cis-3-hydroxy-L-proline] the “substrate turnover by purified enzyme, Lineweaver-Burk kinetics” value (AtLhpI (AcnX Type I)) was “among eight proline derivatives (Fig. S1), only cis-3-hydroxy-L-proline was consumed in a time-dependent manner by both proteins”, the “substrate turnover by purified enzyme (HPLC/amino acid analyzer, 1H NMR, coupled)” value [2] was 39.5 µmol/min/mg and the “substrate turnover by purified enzyme (amino acid analyzer, Lineweaver-Burk kine)” value (TrLhpI (AcnX Type I)) was 3.75 µmol/min/mg.
In the case of O=C(O)c1ccc[nH]1 [pyrrole-2-carboxylate], the IC50 [3] is reported as ~ 440-fold that of Cd^2+ (2.05 × 10^−3 mM).
O=C(O)[C@H]1NCC[C@@H]1O [trans-3-hydroxy-L-proline] was tested, and the “bifunctional dehydratase and 2-epimerase activity (details in supplement, Fig. S)” value (PaLhpL) was “PaLhpL gene (PA1255; Fig. 1d) in the L-hydroxyproline gene cluster encodes a bifunctional dehydratase and 2-epimerase toward trans-3-hydroxy-L-proline”.

Source: article PMC5144071, “Functional characterization of aconitase X as a cis-3-hydroxy-L-proline dehydratase” (Scientific Reports, 2016)
